Measurements published in publication PMC11845477, “Exploring the principles behind antibiotics with limited resistance” (Nature Communications, 2025).
Where a SMILES comes first, the peptide text is derived from it. Bridges are numbered along the chain shown (N, C = ends). [ ]: non-standard residue; d: D form. The star is where a group is joined. X1 = NC[C@@H](CC(=O)*)c1cccc(Cl)c1; Dab = NCC[C@H](N)C(=O)O; Dap = NC[C@H](N)C(=O)O

Assays:
[1] = test system: A. baumannii ATCC 17978 (SEN) and A. baumannii ATCC BAA-1605 (MDR); assay: microbe, parasite or virus in culture; assay type: cell-based, Acinetobacter baumannii; details: for MIC: across three biological replicates
How it was run: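 Broth microdilution in cation-adjusted Mueller-Hinton Broth 2 (except SCH79797), 11–16-step serial dilutions, 5 × 10^5 cells/mL, 37 °C with shaking for 18 h, 2 replicates. MIC is the lowest concentration giving complete growth inhibition (OD600 < 0.05); relative MIC = MIC evolved/MIC ancestor.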

[2] = test system: E. coli ATCC 25922 (SEN) and E. coli NCTC13846 (MDR); assay: Adaptive laboratory evolution (ALE), relative MIC of evolved lines; assay type: cell-based, Escherichia coli
How it was run: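 Ten parallel populations per antibiotic–ancestor pair were evolved in MHB at 37 °C, starting near 50% growth-inhibiting drug. Every 72 h they were passaged into 0.5–2.5× increasing concentrations, keeping the highest-drug well with OD600 > 0.2.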

CC(C)C[C@@H]1NC(=O)[C@@H](Cc2ccccc2)NC(=O)[C@H](CCN)NC(=O)[C@@H](NC(=O)[C@H](CN)NC(=O)[C@@H](NC(=O)C[C@H](CN)c2cccc(Cl)c2)[C@@H](C)O)CCNC(=O)[C@H]([C@@H](C)O)NC(=O)[C@H](CCN)NC(=O)[C@H](CCN)NC1=O [SPR206] (X1-T[Dap][Dab][Dab][dF]L[Dab][Dab]T; lactam 3-C (inferred); N-terminus assumed)
MIC of ancestor ([1]; A. baumannii ATCC 17978 (AB-SEN), ancestor strain): 0.125 µg/mL | MIC of ancestor ([1]; A. baumannii ATCC BAA 1605 (AB-MDR), ancestor strain): 0.125 µg/mL | MIC of ancestor ([1]; Acinetobacter baumannii ATCC 17978 (AB-SEN), ancestor strain, sheet fig 2a): 0.125 µg/mL | MIC ([1]; Acinetobacter baumannii ATCC 17978 (AB-SEN)): 0.125 µg/mL | MIC of ancestor ([1]; Acinetobacter baumannii ATCC BAA 1605 (AB-MDR), ancestor strain, sheet fig 2a): 0.125 µg/mL | MIC ([1]; Acinetobacter baumannii ATCC BAA-1605 (AB-MDR)): 0.125 µg/mL | MIC of ancestor ([1]; ancestor AB-SEN (Acinetobacter baumannii ATCC 17978)): 0.125 µg/mL | Relative MIC ([2]; ALE, E. coli ATCC 25922 (EC-SEN), evolved line 1): 512 | Relative MIC ([2]; ALE, E. coli ATCC 25922 (EC-SEN), evolved line 2): 256 | Relative MIC ([2]; ALE, E. coli ATCC 25922 (EC-SEN), evolved line 3): 512 | Relative MIC ([2]; ALE, E. coli ATCC 25922 (EC-SEN), evolved line 4): 256 | Relative MIC ([2]; ALE, E. coli ATCC 25922 (EC-SEN), evolved line 5): 128 | Relative MIC ([2]; ALE, E. coli ATCC 25922 (EC-SEN), evolved line 6): 512 | Relative MIC ([2]; ALE, E. coli ATCC 25922 (EC-SEN), evolved line 7): 256 | Relative MIC ([2]; ALE, E. coli ATCC 25922 (EC-SEN), evolved line 8): 128 | Relative MIC ([2]; ALE, E. coli ATCC 25922 (EC-SEN), evolved line 9): 256 | Relative MIC ([2]; ALE, E. coli ATCC 25922 (EC-SEN), evolved line 10): 16 | Relative MIC ([2]; ALE, E. coli NCTC 13846 (EC-MDR), evolved line 1): 8 | Relative MIC ([2]; ALE, E. coli NCTC 13846 (EC-MDR), evolved line 2): 16 | Relative MIC ([2]; ALE, E. coli NCTC 13846 (EC-MDR), evolved line 3): 16 | Relative MIC ([2]; ALE, E. coli NCTC 13846 (EC-MDR), evolved line 4): 16 | Relative MIC ([2]; ALE, E. coli NCTC 13846 (EC-MDR), evolved line 5): 32 | Relative MIC ([2]; ALE, E. coli NCTC 13846 (EC-MDR), evolved line 6): 8 | Relative MIC ([2]; ALE, E. coli NCTC 13846 (EC-MDR), evolved line 7): 8 | Relative MIC ([2]; ALE, E. coli NCTC 13846 (EC-MDR), evolved line 8): 16 | Relative MIC ([2]; ALE, E. coli NCTC 13846 (EC-MDR), evolved line 9): 16 | Relative MIC ([2]; ALE, E. coli NCTC 13846 (EC-MDR), evolved line 10): 32 | Relative MIC (log10) ([2]; EC-MDR (Escherichia coli NCTC 13846), evolved line 2): 1.204 log10 | Relative MIC (log10) ([2]; EC-MDR (Escherichia coli NCTC 13846), evolved line 4): 1.204 log10 | Relative MIC (log10) ([2]; EC-MDR (Escherichia coli NCTC 13846), evolved line 8): 1.204 log10 | Relative MIC (log10) ([2]; EC-MDR (Escherichia coli NCTC 13846), evolved line 9): 1.204 log10 | Relative MIC (log10) ([2]; EC-MDR (Escherichia coli NCTC 13846), evolved line 10): 1.505 log10 | MIC of evolved line ([2]; EC-MDR (NCTC 13846), evolved line 1): 32 µg/mL | Relative MIC ([2]; EC-MDR (NCTC 13846), evolved line 1, evolved vs ancestor): 8 | MIC of evolved line ([2]; EC-MDR (NCTC 13846), evolved line 2): 64 µg/mL | Relative MIC ([2]; EC-MDR (NCTC 13846), evolved line 2, evolved vs ancestor): 16 | Relative MIC ([2]; EC-MDR (NCTC 13846), evolved line 3, evolved vs ancestor): 16 | MIC of evolved line ([2]; EC-MDR (NCTC 13846), evolved line 4): 64 µg/mL | Relative MIC ([2]; EC-MDR (NCTC 13846), evolved line 4, evolved vs ancestor): 16 | Relative MIC ([2]; EC-MDR (NCTC 13846), evolved line 5, evolved vs ancestor): 32 | Relative MIC ([2]; EC-MDR (NCTC 13846), evolved line 6, evolved vs ancestor): 8 | MIC of evolved line ([2]; EC-MDR (NCTC 13846), evolved line 7): 32 µg/mL | Relative MIC ([2]; EC-MDR (NCTC 13846), evolved line 7, evolved vs ancestor): 8 | Relative MIC ([2]; EC-MDR (NCTC 13846), evolved line 8, evolved vs ancestor): 16 | Relative MIC ([2]; EC-MDR (NCTC 13846), evolved line 9, evolved vs ancestor): 16 | Relative MIC ([2]; EC-MDR (NCTC 13846), evolved line 10, evolved vs ancestor): 32 | MIC of evolved line ([2]; EC-MDR NCTC 13846, evolved line 3): 64 µg/mL | MIC of evolved line ([2]; EC-MDR NCTC 13846, evolved line 5): 128 µg/mL | MIC of evolved line ([2]; EC-MDR NCTC 13846, evolved line 6): 32 µg/mL | MIC of evolved line ([2]; EC-MDR NCTC 13846, evolved line 8): 64 µg/mL | MIC of evolved line ([2]; EC-MDR NCTC 13846, evolved line 9): 64 µg/mL | MIC of evolved line ([2]; EC-MDR NCTC 13846, evolved line 10): 128 µg/mL | MIC of evolved line ([2]; EC-SEN (ATCC 25922), evolved line 1): 128 µg/mL | Relative MIC ([2]; EC-SEN (ATCC 25922), evolved line 1, evolved vs ancestor): 512 | MIC of evolved line ([2]; EC-SEN (ATCC 25922), evolved line 2): 64 µg/mL | Relative MIC ([2]; EC-SEN (ATCC 25922), evolved line 2, evolved vs ancestor): 256 | MIC of evolved line ([2]; EC-SEN (ATCC 25922), evolved line 3): 128 µg/mL | Relative MIC ([2]; EC-SEN (ATCC 25922), evolved line 3, evolved vs ancestor): 512 | MIC of evolved line ([2]; EC-SEN (ATCC 25922), evolved line 4): 64 µg/mL | Relative MIC ([2]; EC-SEN (ATCC 25922), evolved line 4, evolved vs ancestor): 256 | MIC of evolved line ([2]; EC-SEN (ATCC 25922), evolved line 5): 32 µg/mL | Relative MIC ([2]; EC-SEN (ATCC 25922), evolved line 5, evolved vs ancestor): 128 | MIC of evolved line ([2]; EC-SEN (ATCC 25922), evolved line 6): 128 µg/mL | Relative MIC ([2]; EC-SEN (ATCC 25922), evolved line 6, evolved vs ancestor): 512 | MIC of evolved line ([2]; EC-SEN (ATCC 25922), evolved line 7): 64 µg/mL | Relative MIC ([2]; EC-SEN (ATCC 25922), evolved line 7, evolved vs ancestor): 256 | MIC of evolved line ([2]; EC-SEN (ATCC 25922), evolved line 8): 32 µg/mL | Relative MIC ([2]; EC-SEN (ATCC 25922), evolved line 8, evolved vs ancestor): 128 | MIC of evolved line ([2]; EC-SEN (ATCC 25922), evolved line 9): 64 µg/mL | Relative MIC ([2]; EC-SEN (ATCC 25922), evolved line 9, evolved vs ancestor): 256 | MIC of evolved line ([2]; EC-SEN (ATCC 25922), evolved line 10): 4 µg/mL | Relative MIC ([2]; EC-SEN (ATCC 25922), evolved line 10, evolved vs ancestor): 16 | Relative MIC (log10) ([2]; EC-SEN (Escherichia coli ATCC 25922), evolved line 3): 2.709 log10 | Relative MIC (log10) ([2]; EC-SEN (Escherichia coli ATCC 25922), evolved line 4): 2.408 log10 | Relative MIC (log10) ([2]; EC-SEN (Escherichia coli ATCC 25922), evolved line 6): 2.709 log10 | Relative MIC (log10) ([2]; EC-SEN (Escherichia coli ATCC 25922), evolved line 9): 2.408 log10 | Relative MIC (log10) ([2]; EC-SEN, Escherichia coli ATCC 25922, evolved line 1): 2.709 log10 | Relative MIC ([2]; Escherichia coli ATCC 25922 (EC-SEN), evolved line 1): 512 | Relative MIC ([2]; Escherichia coli ATCC 25922 (EC-SEN), evolved line 2): 256 | Relative MIC ([2]; Escherichia coli ATCC 25922 (EC-SEN), evolved line 3): 512 | Relative MIC ([2]; Escherichia coli ATCC 25922 (EC-SEN), evolved line 4): 256 | Relative MIC ([2]; Escherichia coli ATCC 25922 (EC-SEN), evolved line 5): 128 | Relative MIC ([2]; Escherichia coli ATCC 25922 (EC-SEN), evolved line 6): 512 | Relative MIC ([2]; Escherichia coli ATCC 25922 (EC-SEN), evolved line 7): 256 | Relative MIC ([2]; Escherichia coli ATCC 25922 (EC-SEN), evolved line 8): 128 | Relative MIC ([2]; Escherichia coli ATCC 25922 (EC-SEN), evolved line 9): 256 | Relative MIC ([2]; Escherichia coli ATCC 25922 (EC-SEN), evolved line 10): 16 | Relative MIC ([2]; Escherichia coli NCTC 13846 (EC-MDR), evolved line 1): 8 | Relative MIC ([2]; Escherichia coli NCTC 13846 (EC-MDR), evolved line 2): 16 | Relative MIC ([2]; Escherichia coli NCTC 13846 (EC-MDR), evolved line 3): 16 | Relative MIC ([2]; Escherichia coli NCTC 13846 (EC-MDR), evolved line 4): 16 | Relative MIC ([2]; Escherichia coli NCTC 13846 (EC-MDR), evolved line 5): 32 | Relative MIC ([2]; Escherichia coli NCTC 13846 (EC-MDR), evolved line 6): 8 | Relative MIC ([2]; Escherichia coli NCTC 13846 (EC-MDR), evolved line 7): 8 | Relative MIC ([2]; Escherichia coli NCTC 13846 (EC-MDR), evolved line 8): 16 | Relative MIC ([2]; Escherichia coli NCTC 13846 (EC-MDR), evolved line 9): 16 | Relative MIC ([2]; Escherichia coli NCTC 13846 (EC-MDR), evolved line 10): 32
